Data on nine molecules can be found in patent publication US12458572B2, “Homogeneous liquid composition comprising 1,2-octanediol and use thereof” (Minasolve SAS, priority 2020, dated 2025).

The first data set in a line: Solubility in 1,2-octanediol. Type of data set: physicochemical.
Conditions: not given
Here is the method: The solubility of water in 1,2-octanediol exceeds 30% at 40° C. However, mixtures of 1,2-octanediol with water tend to form highly viscous gels at ambient temperature which are hard to handle.
Glycerol, with glycerine and 1,2,3-trihydroxypropane as well-known alternative names, is a C3 alkanetriol. The solubility of glycerol in 1,2-octanediol exceeds 30%. However, mixtures of 1,2-octanediol and glycerol tend to be highly viscous and might separate at low temperatures. Furthermore, the addition of high amounts of glycerol to skin care formulations may cause a sticky skin-feel.
As to `OCC(O)CO` [1,2,3-trihydroxypropane], the “solubility of glycerol in 1,2-octanediol” value is “exceeds 30%”.

The next data set in a line: log POW, n-octanol/water partition coefficient, OECD Test No. 117. Type of data set: physicochemical.
Conditions: not given
The procedure: The partition coefficient between n-octanol and water, also called ‘log POW’ and performed according to OECD Test No. 117 at 25° C., of 1,2-octanediol is 2.1. […] A specialist trained in the art could therefore expect that a mixture of water, 1,2-octanediol and hydrophilic short chain alkanediols and/or alkanetriols would form a hydrophilic phase containing water, and a separate lipophilic phase containing 1,2-octanediol.
The miscibility of 1,2-octanediol with C3-C4 alkanediols is well-known. However, comparably large amounts of these diols are needed for lowering the melting point of 1,2-octanediol below 15° C. Furthermore, C3-C4 polyols are highly hydrophilic components with a log POW of ≤0, as detailed in the following table (Table 1).
With `OCC(O)CO` [1,2,3-trihydroxypropane], the “log POW (25° C.)” value is recorded as −1.75.
As to `CC(O)CO` (stereo not shown) [1,2-propanediol], the “log POW (25° C.)” value stood at 1.07.
In the case of `OCCCCO` [1,4-butanediol], the “log POW (25° C.)” value is reported as −0.88.
Same read-out and setting: then `CC(O)C(C)O` (stereo not shown) [2,3-butanediol], with −0.92.

Staying with this data set, now noted: OECD Test No. 117 at 25° C.
`CCC(O)CO` (stereo not shown) [1,2-butanediol]: the “log POW (25° C.)” value is −0.59.
On the same count and under the same terms, the value for `CCCCCCC(O)CO` (stereo not shown) [1,2-octanediol] was 2.1; that for `CC(O)CCO` (stereo not shown) [1,3-butanediol] was −0.92; that for `OCCCO` [1,3-propanediol] was 0.71.
Consider `CC(CO)CO` [2-methyl-1,3-propanediol], for which the “log POW (25° C.)” value is −0.6.
